# Source: patent US20210154472A1, “ELECTRICALLY RESPONSIVE, NANOPATTERNED SURFACE FOR TRIGGERED INTRACELLULAR DELIVERY OF BIOLOGICALLY ACTIVE MOLECULES” (Yissum Research Development Company of the Hebrew …, priority 2019, published 2021)
# Tested on: NIH3T3 fibroblast cells
# Assay: Dox internalization in cells incubated in Dox solution (FIG. 7)
# Assay type: cell-based, mice
# Details: cells incubated 24 and 36 h in 17 μM Dox solution
# Description: FIGS. 7A-D provide (A,B) Overlaid optical microscopy and fluorescence images (λex=481 nm) showing extent of Dox internalization in NIH3T3 fibroblast cells after 24 and 36 h incubation in 17 μM Dox solution (for comparison, the Dox concentration that was released from 1-cm^2 nano-patterned PEM to 1-mL solution was ˜14 μM as shown in FIG. 4F). Cells were cultured for 2 days prior to incubation.
smiles,measurement,value
"COc1cccc2c1C(=O)c1c(O)c3c(c(O)c1C2=O)C[C@@](O)(C(=O)CO)C[C@@H]3O[C@H]1C[C@H](N)[C@H](O)[C@H](C)O1 [Dox, doxorubicin]","time for the drug to penetrate the cell membrane, versus release from PEM",much longer time was needed
